Laboratory results taken from the supplement of paper PMC9663587.

How the values were obtained:
AZD1775 = compound: C=CCn1c(=O)c2cnc(Nc3ccc(N4CCN(C)CC4)cc3)nc2n1-c1cccc(C(C)(C)O)n1 [AZD1775]
Cediranib/AZD2171 = compound: COc1cc2c(Oc3ccc4[nH]c(C)cc4c3F)ncnc2cc1OCCCN1CCCC1 [Cediranib/AZD2171]
Saracatinib/AZD0530 = compound: CN1CCN(CCOc2cc(OC3CCOCC3)c3c(Nc4c(Cl)ccc5c4OCO5)ncnc3c2)CC1 [Saracatinib/AZD0530]
[1] = compound: CCCCOc1c(C(=O)c2c(F)cc(C)cc2F)c[nH]c2nncc1-2
Alpelisib/BYL719 = compound: Cc1nc(NC(=O)N2CCC[C@H]2C(N)=O)sc1-c1ccnc(C(C)(C)C(F)(F)F)c1 [Alpelisib/BYL719]
[2] = compound: CC(=O)Nc1cccc(-n2c(=O)n(C3CC3)c(=O)c3c(Nc4ccc(I)cc4F)n(C)c(=O)c(C)c32)c1
[3] = compound: COc1ccc2c(c1)[C@]1(C[C@H]1c1ccc3c(/C=C/c4ccc(CN5C[C@@H](C)O[C@@H](C)C5)cc4)n[nH]c3c1)C(=O)N2
BVD523 = compound: CC(C)Nc1cc(-c2c[nH]c(C(=O)N[C@H](CO)c3cccc(Cl)c3)c2)c(Cl)cn1 [BVD523]
[4] = compound: CO[C@@H](C)Cn1c(=O)n(C)c2cnc3ccc(-c4cncc(C(C)(C)O)c4)cc3c21
THZ1 [5] = compound: T1, CN(C)C/C=C/C(=O)Nc1ccc(C(=O)Nc2cccc(Nc3ncc(Cl)c(-c4c[nH]c5ccccc45)n3)c2)cc1 [THZ1]
THZ531 [6] = compound: T2, CN(C)C/C=C/C(=O)Nc1ccc(C(=O)N2CCC[C@@H](Nc3ncc(Cl)c(-c4c[nH]c5ccccc45)n3)C2)cc1 [THZ531]
Rucaparib = compound: CNCc1ccc(-c2[nH]c3cc(F)cc4c3c2CCNC4=O)cc1 [Rucaparib]
LEE011/Ribociclib = compound: CN(C)C(=O)c1cc2cnc(Nc3ccc(N4CCNCC4)cn3)nc2n1C1CCCC1 [LEE011/Ribociclib]; experiment: increase in dead-cell fraction, 72 h; higher = more death;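 further: breast cancer cell lines in 384-well plates, stained with Hoechst plus LIVE/DEAD far red dye and imaged, cells above an LDR intensity threshold counted dead, Hoechst-negative corpses included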
BSJ-03-123 = compound: CC(=O)c1c(C)c2cnc(Nc3ccc(N4CCN(CCOCCOCCOCCNC(=O)COc5cccc6c5C(=O)N(C5CCC(=O)NC5=O)C6=O)CC4)cn3)nc2n(C2CCCC2)c1=O [BSJ-03-123]; experiment: as above
[7] = compound: CCc1cnn2c(NCc3ccc[n+]([O-])c3)cc(N3CCCC[C@H]3CCO)nc12; experiment: as above
[8] = compound: CC(=O)c1c(C)c2cnc(Nc3ccc(N4CCNCC4)cn3)nc2n(C2CCCC2)c1=O; experiment: as above
YKL-5-124 = compound: C=CC(=O)Nc1ccc(C(=O)Nc2[nH]nc3c2CN(C(=O)N[C@H](CN(C)C)c2ccccc2)C3(C)C)cc1 [YKL-5-124]; experiment: as above
THZ1 [9] = compound: T1, THZ1; experiment: as above
THZ531 [10] = compound: T2, THZ531; experiment: as above
Neratinib/HKI272 = compound: CCOc1cc2ncc(C#N)c(Nc3ccc(OCc4ccccn4)c(Cl)c3)c2cc1NC(=O)/C=C/CN(C)C [Neratinib/HKI272]; experiment: as above
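Wherever GR50, 72 h is given: breast cancer and non-malignant breast epithelial cell lines, Deep Dye Drop or Dye Drop imaging, nine half-log doses, GR normalized to time-zero plates and DMSO-only controls.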

## SUM44PE
AZD1775
  GR50, 72 h: 0.237 µM
Cediranib/AZD2171
  GR50, 72 h: 9.59 µM
Saracatinib/AZD0530
  GR50, 72 h: 6.6 µM
[1]
  GR50, 72 h: < 0.001 µM
Alpelisib/BYL719
  GR50, 72 h: 0.65 µM
[2]
  GR50, 72 h: > 1 µM
[3]
  GR50, 72 h: 0.000792 µM
BVD523
  GR50, 72 h: 2.7 µM
[4]
  GR50, 72 h: < 0.001 µM
THZ1 [5]
  GR50, 72 h: 0.00443 µM
THZ531 [6]
  GR50, 72 h: 0.0499 µM
Rucaparib
  GR50, 72 h: > 10 µM
LEE011/Ribociclib; 0.001 µM
  increase in dead-cell fraction: 0.0007
LEE011/Ribociclib; 0.003162 µM
  increase in dead-cell fraction: -0.0447
LEE011/Ribociclib; 0.01 µM
  increase in dead-cell fraction: 0.0327
LEE011/Ribociclib; 0.03162 µM
  increase in dead-cell fraction: -0.0402
LEE011/Ribociclib; 0.1 µM
  increase in dead-cell fraction: 0.0001
LEE011/Ribociclib; 0.3162 µM
  increase in dead-cell fraction: -0.0342
LEE011/Ribociclib; 1 µM
  increase in dead-cell fraction: 0.0417
LEE011/Ribociclib; 3.162 µM
  increase in dead-cell fraction: -0.0186
LEE011/Ribociclib; 10 µM
  increase in dead-cell fraction: -0.0286
BSJ-03-123; 0.001 µM
  increase in dead-cell fraction: 0.0021
BSJ-03-123; 0.003162 µM
  increase in dead-cell fraction: 0.0071
BSJ-03-123; 0.01 µM
  increase in dead-cell fraction: 0.0014
BSJ-03-123; 0.03162 µM
  increase in dead-cell fraction: 0.0121
BSJ-03-123; 0.1 µM
  increase in dead-cell fraction: 0.0265
BSJ-03-123; 0.3162 µM
  increase in dead-cell fraction: 0.0126
BSJ-03-123; 1 µM
  increase in dead-cell fraction: 0.0666
BSJ-03-123; 3.162 µM
  increase in dead-cell fraction: 0.115
[7]; 0.0001 µM
  increase in dead-cell fraction: 0.0041
[7]; 0.0003162 µM
  increase in dead-cell fraction: -0.0148
[7]; 0.001 µM
  increase in dead-cell fraction: 0.0007
[7]; 0.003162 µM
  increase in dead-cell fraction: -0.0141
[7]; 0.01 µM
  increase in dead-cell fraction: 0.102
[7]; 0.03162 µM
  increase in dead-cell fraction: 0.894
[8]; 0.0003162 µM
  increase in dead-cell fraction: -0.0301
[8]; 0.001 µM
  increase in dead-cell fraction: 0.0185
[8]; 0.003162 µM
  increase in dead-cell fraction: 0.0057
[8]; 0.01 µM
  increase in dead-cell fraction: -0.0159
[8]; 0.03162 µM
  increase in dead-cell fraction: 0.0328
[8]; 0.1 µM
  increase in dead-cell fraction: 0.0351
[8]; 0.3162 µM
  increase in dead-cell fraction: 0.0647
[8]; 1 µM
  increase in dead-cell fraction: -0.0062
[8]; 3.162 µM
  increase in dead-cell fraction: 0.0016
YKL-5-124; 0.001 µM
  increase in dead-cell fraction: 0.376
YKL-5-124; 0.003162 µM
  increase in dead-cell fraction: 0.0121
YKL-5-124; 0.01 µM
  increase in dead-cell fraction: 0.0391
YKL-5-124; 0.03162 µM
  increase in dead-cell fraction: 0.053
YKL-5-124; 0.1 µM
  increase in dead-cell fraction: 0.0951
YKL-5-124; 0.3162 µM
  increase in dead-cell fraction: 0.0965
YKL-5-124; 1 µM
  increase in dead-cell fraction: 0.127
YKL-5-124; 3.162 µM
  increase in dead-cell fraction: 0.447
THZ1 [9]; 0.0001 µM
  increase in dead-cell fraction: 0.0181
THZ1 [9]; 0.0003162 µM
  increase in dead-cell fraction: -0.0186
THZ1 [9]; 0.001 µM
  increase in dead-cell fraction: 0.0262
THZ1 [9]; 0.003162 µM
  increase in dead-cell fraction: -0.0493
THZ1 [9]; 0.01 µM
  increase in dead-cell fraction: 0.0625
THZ1 [9]; 1 µM
  increase in dead-cell fraction: 0.0767
THZ531 [10]; 0.0001 µM
  increase in dead-cell fraction: -0.0163
THZ531 [10]; 0.0003162 µM
  increase in dead-cell fraction: -0.0027
THZ531 [10]; 0.001 µM
  increase in dead-cell fraction: 0.0202
THZ531 [10]; 0.003162 µM
  increase in dead-cell fraction: -0.008
THZ531 [10]; 0.01 µM
  increase in dead-cell fraction: -0.0392
THZ531 [10]; 0.03162 µM
  increase in dead-cell fraction: -0.0411
THZ531 [10]; 0.1 µM
  increase in dead-cell fraction: 0.0916
Neratinib/HKI272; 0.0003162 µM
  increase in dead-cell fraction: -0.0158
Neratinib/HKI272; 0.001 µM
  increase in dead-cell fraction: -0.0227
Neratinib/HKI272; 0.003162 µM
  increase in dead-cell fraction: -0.0156
Neratinib/HKI272; 0.01 µM
  increase in dead-cell fraction: 0.029
Neratinib/HKI272; 0.03162 µM
  increase in dead-cell fraction: 0.0991
Neratinib/HKI272; 0.1 µM
  increase in dead-cell fraction: 0.118
Neratinib/HKI272; 0.3162 µM
  increase in dead-cell fraction: 0.137
Neratinib/HKI272; 1 µM
  increase in dead-cell fraction: 0.22
Neratinib/HKI272; 3.162 µM
  increase in dead-cell fraction: 0.358
